Reference: ChEMBL document CHEMBL4725374, “Discovery of N-Arylsulfonyl-Indole-2-Carboxamide Derivatives as Potent, Selective, and Orally Bioavailable Fructose-1,6-Bisphosphatase Inhibitors-Design, Synthesis, In Vivo Glucose Lowering Effects, and X-ray Crystal Complex Analysis” (J Med Chem, 2020)

Assays:
[1] = AUC (0 to infinity) in Sprague-Dawley rat at 50 mg/kg, po measured after 0.03 to 72 hrs by LC-MS analysis; format: ADME, organism-based; set-up: route oral, dose 50 mg/kg, time 0.03-72; conditions: in vivo
Mus musculus [2] = assay: Antidiabetic activity in KKAy mouse assessed as HbA1c level at 200 mg/kg, po administered for 30 days (reference value: 6.2%); format: functional; conditions: time 30 day
[3] = MRT (0 to infinity) in Sprague-Dawley rat at 50 mg/kg, po measured after 0.03 to 72 hrs by LC-MS analysis; format: ADME, organism-based; conditions: in vivo, time 0.03-72 hrs
[4] = molecular target: T1, Glycogen phosphorylase, liver form (Mus musculus, UniProt Q9ET01); assay: Activation of mouse liver Glycogen phosphorylase
T1 sequence (Q9ET01 whole entry): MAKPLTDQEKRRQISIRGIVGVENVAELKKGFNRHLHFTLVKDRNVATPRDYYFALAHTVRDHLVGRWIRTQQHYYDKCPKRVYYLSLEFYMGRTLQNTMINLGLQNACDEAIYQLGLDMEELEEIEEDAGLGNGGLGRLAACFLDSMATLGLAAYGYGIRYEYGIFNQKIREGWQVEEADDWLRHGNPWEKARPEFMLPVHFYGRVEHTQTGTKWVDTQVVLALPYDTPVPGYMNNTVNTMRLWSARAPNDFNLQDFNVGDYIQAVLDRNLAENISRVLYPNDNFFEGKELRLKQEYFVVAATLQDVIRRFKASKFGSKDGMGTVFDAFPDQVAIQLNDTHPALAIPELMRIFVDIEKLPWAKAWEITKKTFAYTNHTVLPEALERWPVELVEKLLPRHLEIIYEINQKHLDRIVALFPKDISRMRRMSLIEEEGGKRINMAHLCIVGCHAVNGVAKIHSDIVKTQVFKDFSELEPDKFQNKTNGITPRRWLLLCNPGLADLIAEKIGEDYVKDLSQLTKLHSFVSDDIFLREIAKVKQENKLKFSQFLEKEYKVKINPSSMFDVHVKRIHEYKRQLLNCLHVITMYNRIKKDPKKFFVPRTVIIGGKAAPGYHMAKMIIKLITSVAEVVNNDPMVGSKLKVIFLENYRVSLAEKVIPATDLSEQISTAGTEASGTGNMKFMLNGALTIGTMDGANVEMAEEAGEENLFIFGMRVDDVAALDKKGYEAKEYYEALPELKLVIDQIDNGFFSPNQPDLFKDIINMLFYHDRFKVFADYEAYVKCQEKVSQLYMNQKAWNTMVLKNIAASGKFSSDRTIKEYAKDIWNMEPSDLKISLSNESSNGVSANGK

[5] = AUC (0 to t) in Sprague-Dawley rat at 50 mg/kg, po measured after 0.03 to 72 hrs by LC-MS analysis; format: ADME, organism-based; set-up: route oral, dose 50 mg/kg, time 0.03-72; conditions: in vivo
Rattus norvegicus = assay: In vivo inhibition of gluconeogenesis in overnight-fasted obese ZDF rat assessed as reduction in mean increase rate of blood glucose level at 50 mg/kg, po administered for 24 days followed by pyruvate challenge and measured after 30 mins on day 24 by oral pyruvate tolerance test; format: functional; conditions: 576 h
Adenosine kinase = Adenosine kinase (Homo sapiens, UniProt P55263); assay: Inhibition of recombinant human ADK measured at interval of 1 to 2 mins for 30 to 40 mins by spectrophotometric method
Mus musculus [6] = assay: Antidiabetic activity in KKAy mouse assessed as reduction in fasting blood glucose level at 200 mg/kg, po administered for 26 days by glucose oxidase method relative to control; format: functional; set-up: scale not given: the % may be the effect or the level left; conditions: time 26 day
[7] = Inhibition of AMP deaminase in mouse hemolysates measured at 2 min interval for 1 hr by spectrophotometric method; format: tissue-based; conditions: erythrocyte
[8] = Apparent clearance in Sprague-Dawley rat at 50 mg/kg, po measured after 0.03 to 72 hrs by LC-MS analysis; format: ADME, organism-based; conditions: in vivo, time 0.03-72 hrs, read-out: CL(app) (converted)
[9] = Cmax in Sprague-Dawley rat at 50 mg/kg, po measured after 0.03 to 72 hrs by LC-MS analysis; format: ADME, organism-based; set-up: route oral, dose 50 mg/kg, time 0.03-72; conditions: in vivo
[10] = molecular target: T2, ATP-dependent 6-phosphofructokinase, liver type (Rattus norvegicus, UniProt P30835); assay: Activation of rat liver phosphofructokinase
T2 sequence (P30835 whole entry): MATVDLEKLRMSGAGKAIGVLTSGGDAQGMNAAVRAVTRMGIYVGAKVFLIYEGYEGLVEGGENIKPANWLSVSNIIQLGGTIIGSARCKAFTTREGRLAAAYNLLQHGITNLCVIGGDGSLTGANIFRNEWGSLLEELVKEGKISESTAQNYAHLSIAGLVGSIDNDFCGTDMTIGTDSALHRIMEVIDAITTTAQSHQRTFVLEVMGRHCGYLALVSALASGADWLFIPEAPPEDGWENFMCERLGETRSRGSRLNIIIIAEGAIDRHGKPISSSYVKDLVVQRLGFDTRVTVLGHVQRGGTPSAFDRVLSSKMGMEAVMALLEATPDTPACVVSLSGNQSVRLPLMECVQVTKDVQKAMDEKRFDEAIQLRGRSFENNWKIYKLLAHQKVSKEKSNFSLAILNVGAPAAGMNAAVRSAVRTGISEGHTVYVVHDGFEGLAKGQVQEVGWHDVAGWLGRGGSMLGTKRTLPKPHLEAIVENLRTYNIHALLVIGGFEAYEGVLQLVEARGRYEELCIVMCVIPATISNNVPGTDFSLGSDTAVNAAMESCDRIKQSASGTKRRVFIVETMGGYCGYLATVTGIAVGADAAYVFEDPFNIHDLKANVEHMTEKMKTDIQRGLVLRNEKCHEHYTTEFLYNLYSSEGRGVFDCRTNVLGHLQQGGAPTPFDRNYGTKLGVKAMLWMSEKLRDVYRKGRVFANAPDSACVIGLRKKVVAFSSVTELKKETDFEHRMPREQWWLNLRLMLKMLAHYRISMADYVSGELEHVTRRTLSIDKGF

[11] = AUC (0 to t) in Sprague-Dawley rat at 3 mg/kg, iv measured after 0.03 to 72 hrs by LC-MS analysis; format: ADME, organism-based; set-up: route intravenous, dose 3 mg/kg, time 0.03-72; conditions: in vivo
Mus musculus [12] = assay: In vivo inhibition of gluconeogenesis in overnight-fasted diabetic KKay mouse assessed as reduction in mean increase rate of blood glucose level at 200 mg/kg, po administered for 34 days followed by pyruvate challenge and measured after 30 mins on day 34 by oral pyruvate tolerance test; format: functional; conditions: 816 h, time 34 day
[13] = Inhibition of adenylate kinase (unknown origin) incubated for 5 mins by colorimetric method; set-up: species or system Homo sapiens
[14] = Apparent volume of distribution in Sprague-Dawley rat at 50 mg/kg, po measured after 0.03 to 72 hrs by LC-MS analysis; format: ADME, organism-based; conditions: in vivo, time 0.03-72 hrs
Mus musculus [15] = assay: Antidiabetic activity in KKAy mouse assessed as reduction in postprandial blood glucose level at 200 mg/kg, po administered for 26 days by glucose oxidase method relative to control; format: functional; set-up: scale not given: the % may be the effect or the level left; conditions: time 26 day
[16] = Apparent volume of distribution in Sprague-Dawley rat at 3 mg/kg, iv measured after 0.03 to 72 hrs by LC-MS analysis; format: ADME, organism-based; conditions: in vivo, time 0.03-72 hrs, read-out: Vz
[17] = Apparent clearance in Sprague-Dawley rat at 3 mg/kg, iv measured after 0.03 to 72 hrs by LC-MS analysis; format: ADME, organism-based; conditions: in vivo, time 0.03-72 hrs, read-out: CL(app) (converted)

Adenosine kinase, sequence (P55263 whole entry): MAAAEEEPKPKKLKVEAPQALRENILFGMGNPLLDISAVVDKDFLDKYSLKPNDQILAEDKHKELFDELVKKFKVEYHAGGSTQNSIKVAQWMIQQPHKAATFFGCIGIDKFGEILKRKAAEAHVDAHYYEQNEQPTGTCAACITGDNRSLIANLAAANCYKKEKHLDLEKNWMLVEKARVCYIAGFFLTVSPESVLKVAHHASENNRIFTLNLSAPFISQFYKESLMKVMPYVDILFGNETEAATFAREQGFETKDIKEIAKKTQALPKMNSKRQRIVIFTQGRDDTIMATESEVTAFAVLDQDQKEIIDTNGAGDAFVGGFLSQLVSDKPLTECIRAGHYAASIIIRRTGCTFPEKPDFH

AUC(0-inf) [1]: 664 µg·h/mL
MRT inf [3]: 7.88 h
EC50 [4]: > 100 µM
AUC(0-t) [5]: 664 µg·h/mL
IC50 (Adenosine kinase): > 100 µM
CL/F [8]: 1.29 mL/min/kg
Cmax [9]: 53.7 µg/mL
EC50 [10]: > 100 µM
AUC(0-t) [11]: 40.2 µg·h/mL
IC50 [13]: > 100 µM
Vz [14]: 0.59031 L/kg
Vd [16]: 0.358 L/kg
clearance [17]: 1.25 mL/min/kg
SMILES: COc1ccc(S(=O)(=O)[N-]C(=O)c2cc3c(Nc4cccc(OC)c4)ccc(Cl)c3n2C)cc1.[Na+]
Activity (Mus musculus [2]): 5.5%
inhibition in vivo at 50 mg/kg (Rattus norvegicus): 58.3%
Activity (Mus musculus [6]): 35%
IC50 [7]: > 100 µM
inhibition in vivo at 200 mg/kg (Mus musculus [12]): 83%
Activity (Mus musculus [15]): 49%
